These results are taken from publication PMC6013238, “Development of novel NEMO-binding domain mimetics for inhibiting IKK/NF-κB activation” (PLoS Biology, 2018).

In data set [1] the test system is p-IκBα and COX-2. The data set is described as follows: LPS-induced acute inflammation, western blot of p-IκBα and COX-2 in lung and liver. In kind it is in vivo, mouse. The conditions noted are these: acute treatment, LPS 10 mg/kg. How it is done: Fig 6 Newly identified NBD mimetics suppress LPS-induced acute inflammation in vivo. (A) The bioavailability property of SR12460, SR12343, SR12454, and SR11481. Concentrations of NBD mimetics were determined in plasma, brain, muscle, spleen, and liver 2 h post a single i.p. injection of 10 mg/kg of drugs; n = 3 per group. (B) Shown is the model to induce LPS-mediated acute inflammation and the treatment regimen with NBD mimetics. Mouse image via http://www.clker.com/clipart-mice-blank.html (copyright-free). (C) NBD mimetics suppressed LPS-induced acute inflammation in liver and lung by down-regulating NF-κB target gene expression. Vehicle, SR12343, SR12460, and 8K-NBD peptide were dosed at 10 mg/kg 30 min prior to the LPS treatment. Acute inflammation was induced by i.p. injection of 10 mg/kg LPS. Lung and liver were collected 2–4 h post injection, and mRNA was extracted for qRT-PCR analysis. (D, E) Western blot analysis was performed to probe for the expression of p-IκBα and COX-2 at protein level in liver and lung tissues. (F) Serum levels of IL-6 were determine by ELISA. n = 3–8 each group. *P < 0.05, **P < 0.01. […] COX-2, cyclooxygenase 2; IL-6, interleukin 6; i.p., intraperitoneal; LPS, lipopolysaccharide; NBD, NEMO-binding domain; n.d., nondetectable; NEMO, NF-κB essential modulator; NF-κB, nuclear factor κB; qRT-PCR, quantitative real-time polymerase chain reaction. […]

The nature of data set [2]: Hematological measures in acutely treated mice. In kind it is in vivo, mouse. The conditions noted are these: SR12343 30 mg/kg i.p. 30 min before LPS 10 mg/kg, 2 h; mean ± SD. How it is done: To determine their NF-κB inhibitory effects in vivo, SR12343 and SR12460 were tested in an acute model of LPS-induced systemic endotoxemia. C57BL/6J mice were pretreated with vehicle control, 8K-NBD peptide, or NBD mimetics at 10 mg/kg for 30 min, followed by LPS induction at 10 mg/kg (Fig 6B). Lung and liver were harvested 2–4 h post treatment for qRT-PCR analysis of NF-κB target genes. […] Despite lower plasma and tissue concentrations of SR12343 compared to SR12460, its inhibition of NF-κB/IKK in liver and lung were greater than that of SR12460 (Fig 6C). Similarly, acute treatment with SR12343 also affected the LPS-induced expression of NF-κB target genes at protein level. The extent of phosphorylation of IκBα and the levels of COX-2 were reduced in lung and liver tissues treated with SR12343 (Fig 6D and 6E). […] However, no significant differences in lung histopathology were observed. Finally, there was a slight reduction in the number of white blood cells and neutrophils in the SR12343-treated group (Table 2).
Nine mice (male; C57BL/6, 9–13 wk) were randomly divided into 3 groups with 3 mice in each group. Mice were injected i.p. with vehicle (DMSO:Tween80:H2O, 10:10:80) or small-molecule SR12343 (30 mg/kg) for 30 min and then injected i.p. with saline (1 ml/kg) or LPS (10 mg/kg in saline). After 2 h, mice were euthanized by CO2 asphyxiation prior to blood sampling via cardiac puncture. The blood from each mouse was put into 2 collection tubes with coagulant or anticoagulant heparin (approximately 0.6 mL each). The samples in the tubes coated with the anticoagulant heparin were hand-mixed several times and placed on wet ice for hematological analysis using an automatic hematology analyzer (Hemavet 950FS; Drew Scientific, Miami Lakes, FL). Samples in tubes containing no anticoagulant were allowed to clot before centrifugation and submission for serum biochemical analysis using the VetScan VS2 Analyzer with the Comprehensive Diagnostic Profile reagent rotor (Abaxis, Union City, CA). The ALT, AST, and […] activities in the serum were quantitated by a colorimetric, enzymatic method using the Clinical Chemistry Analyzer Cobas c311 (Roche Diagnostics, Risch-Rotkreuz, Switzerland) as per the manufacturer’s instructions.

Take `O=C(CNc1ccc(Cl)cn1)NCCc1cccc(Br)c1` [SR12343]: in data set [1], the “Phosphorylation of IκBα and levels of COX-2 in lung and liver (western blot)” value is recorded as “reduced”. In data set [2], the Hematocrit was 53.0 ± 1.5%, the Hemoglobin worked out at 15.3 ± 0.4 g/dL, the Mean corpuscular hemoglobin turned out to be 14.8 ± 0.2 pg and the “Mean corpuscular hemoglobin concentration” value came out at 28.9 ± 0.2 g/dL. In data set [2], this molecule came in with a Mean corpuscular volume of 51.2 ± 1.0 fL, a Mean platelet volume of 5.7 ± 0.8 fL, a Platelets of 170.7 ± 64.0 K/μL and a Red blood cells of 10.4 ± 0.3 M/μL. Besides, in data set [2], the “Red cell distribution width” value is recorded as 15.0 ± 0.2% and the White blood cells is reported as 7.4 ± 3.3 K/μL.
